Results taken from patent publication US20240270741A1 (Cogent Biosciences, Inc., priority 2023, published 2024).

target: FGFR2 (Homo sapiens, UniProt P21802); assay: FGFR wild type enzyme assay (HTRF KinEASE-TK), FGFR2; details: Enz FGFR2 (nM), FGFR2 wild type enzyme assay
Sequence (P21802 399-821 limits assumed): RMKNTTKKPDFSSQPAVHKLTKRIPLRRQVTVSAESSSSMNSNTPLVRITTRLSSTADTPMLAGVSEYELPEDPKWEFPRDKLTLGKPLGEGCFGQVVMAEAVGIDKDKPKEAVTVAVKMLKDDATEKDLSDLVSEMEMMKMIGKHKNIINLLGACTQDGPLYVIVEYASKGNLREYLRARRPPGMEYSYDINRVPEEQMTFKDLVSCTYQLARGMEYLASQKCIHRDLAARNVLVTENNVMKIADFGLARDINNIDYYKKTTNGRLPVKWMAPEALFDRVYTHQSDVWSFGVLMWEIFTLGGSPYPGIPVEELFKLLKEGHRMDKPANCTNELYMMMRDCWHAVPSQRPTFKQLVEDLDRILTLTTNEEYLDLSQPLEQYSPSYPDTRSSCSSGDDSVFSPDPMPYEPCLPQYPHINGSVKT

| Compound | IC50 |
| --- | --- |
| N#Cc1ccccc1Sc1cc(-c2cnn([C@H]3CCN(C(=O)CO)C3)c2)cn2ncc(C#N)c12 [Example 484, (S)-4-((2-cyanophenyl)thio)-6-(1-(1-(2-hydroxyacetyl)pyrrolidin-3-yl)-1H-pyrazol-4-yl)pyrazolo[1,5-a]pyridine-3-carbonitrile] | 0.4 nM |
| N#Cc1ccccc1Sc1cc(-c2cnn([C@H]3CCN(CCO)C3)c2)cn2ncc(C#N)c12 [Example 485, (S)-4-((2-cyanophenyl)thio)-6-(1-(1-(2-hydroxyethyl)pyrrolidin-3-yl)-1H-pyrazol-4-yl)pyrazolo[1,5-a]pyridine-3-carbonitrile] | 0.4 nM |
| N#Cc1cnn2cc(-c3ccc(N4CCOCC4)nc3)cc(Sc3ncccc3F)c12 [Example 491, 4-((3-fluoropyridin-2-yl)thio)-6-(6-morpholinopyridin-3-yl)pyrazolo[1,5-a]pyridine-3-carbonitrile] | 1 nM |
| N#Cc1ccccc1Sc1cc(-c2cnn(C[C@@H](O)CO)c2)cn2ncc(C#N)c12 [Example 492, (R)-4-((2-cyanophenyl)thio)-6-(1-(2,3-dihydroxypropyl)-1H-pyrazol-4-yl)pyrazolo[1,5-a]pyridine-3-carbonitrile] | 1 nM |
| CC(C)(C)n1cc(-c2cc(Sc3ccccc3C#N)c3c(C#N)cnn3c2)cn1 [Example 493, 6-(1-(tert-butyl)-1H-pyrazol-4-yl)-4-((2-cyanophenyl)thio)pyrazolo [1,5-a]pyridine-3-carbonitrile] | 1 nM |
| N#Cc1ccccc1Sc1cc(-c2ccc(N3CCOCC3)nc2)cn2ncc(C#N)c12 [Example 495, 4-((2-cyanophenyl)thio)-6-(6-morpholinopyridin-3-yl)pyrazolo[1,5-a]pyridine-3-carbonitrile] | 1 nM |
| Cc1c(-c2cc(Sc3ccc(F)cc3C#N)c3c(C#N)cnn3c2)cnn1[C@H]1CCC[C@H](O)C1 [Example 496, 4-((2-cyano-4-fluorophenyl)thio)-6-(1-((1S,3S)-3-hydroxycyclohexyl)-5-methyl-1H-pyrazol-4-yl)pyrazolo[1,5-a]pyridine-3-carbonitrile] | 3 nM |
| Cc1c(-c2cc(Sc3ccc(F)cc3C#N)c3c(C#N)cnn3c2)cnn1[C@@H]1CCC[C@@H](O)C1 [Example 497, 4-((2-cyano-4-fluorophenyl)thio)-6-(1-((1R,3R)-3-hydroxycyclohexyl)-5-methyl-1H-pyrazol-4-y)pyrazolo[1,5-a]pyridine-3-carbonitrile] | 1 nM |
| Cc1c(-c2cc(Sc3ccc(F)cc3C#N)c3c(C#N)cnn3c2)cnn1[C@@H]1CCC[C@H](O)C1 [Example 499, 4-((2-cyano-4-fluorophenyl)thio)-6-(1-((1R,3S)-3-hydroxycyclohexyl)-5-methyl-1H-pyrazol-4-yl)pyrazolo[1,5-a]pyridine-3-carbonitrile] | 1 nM |
| C[C@]1(O)CC[C@H](n2cc(-c3cc(Sc4ccc(F)cc4C#N)c4c(C#N)cnn4c3)cn2)CC1 [Example 501, 4-((2-cyano-4-fluorophenyl)thio)-6-(1-((1r,4r)-4-hydroxy-4-methylcyclohexyl)-1H-pyrazol-4-yl)pyrazolo[1,5-a]pyridine-3-carbonitrile] | 1 nM |
| C[C@@H](O)C(=O)N1CCC(n2cc(-c3cc(Sc4ccc(F)cc4C#N)c4c(C#N)cnn4c3)cn2)CC1 [Example 502, (R)-4-((2-cyano-4-fluorophenyl)thio)-6-(1-(1-(2-hydroxypropanoyl)piperidin-4-yl)-1H-pyrazol-4-yl)pyrazolo[1,5-a]pyridine-3-carbonitrile] | 1 nM |
| C[C@]1(O)CC[C@@H](n2cc(-c3cc(Sc4ccccc4C#N)c4c(C#N)cnn4c3)cn2)CC1 [Example 503, 4-((2-cyanophenyl)thio)-6-(1-((1s,4s)-4-hydroxy-4-methylcyclohexyl)-1H-pyrazol-4-yl)pyrazolo[1,5-a]pyridine-3-carbonitrile] | 0.5 nM |
| C[C@]1(O)CC[C@H](n2cc(-c3cc(Sc4ccccc4C#N)c4c(C#N)cnn4c3)cn2)CC1 [Example 504, 4-((2-cyanophenyl)thio)-6-(1-((1r,4r)-4-hydroxy-4-methylcyclohexyl)-1H-pyrazol-4-yl)pyrazolo[1,5-a]pyridine-3-carbonitrile] | 0.4 nM |
| CN1CC(n2cc(-c3cc(Sc4ncccc4F)c4c(C#N)cnn4c3)cn2)CCC1=O (stereo not shown) [Example 505, 4-((3-fluoropyridin-2-yl)thio)-6-(1-(1-methyl-6-oxopiperidin-3-yl)-1H-pyrazol-4-yl)pyrazolo[1,5-a]pyridine-3-carbonitrile] | 3 nM |
| N#Cc1nn([C@H]2CCCNC2)cc1-c1cc(Sc2ncccc2F)c2c(C#N)cnn2c1 [Example 507, (S)-6-(3-cyano-1-(piperidin-3-yl)-1H-pyrazol-4-yl)-4-((3-fluoropyridin-2-y)thio)pyrazolo[1,5-a]pyridine-3-carbonitrile] | 30 nM |
| N#Cc1cnn2cc(-c3cn([C@H]4CCCNC4)c4nccnc34)cc(Sc3ncccc3F)c12 [Example 509, (S)-4-((3-fluoropyridin-2-yl)thio)-6-(5-(piperidin-3-yl)-5H-pyrrolo[2,3-b]pyrazin-7-yl)pyrazolo[1,5-a]pyridine-3-carbonitrile] | 22 nM |
| CC(C)(CO)N1CC[C@H](n2cc(-c3cc(Sc4ncccc4F)c4c(C#N)cnn4c3)cn2)C1 [Example 510, (S)-4-((3-fluoropyridin-2-yl)thio)-6-(1-(1-(1-hydroxy-2-methylpropan-2-yl)pyrrolidin-3-yl)-1H-pyrazol-4-yl)pyrazolo[1,5-a]pyridine-3-carbonitrile] | 1 nM |
| Cc1c(-c2cc(Sc3ccc(F)cc3C#N)c3c(C#N)cnn3c2)cnn1[C@H]1CCCN(C(=O)[C@@H](C)O)C1 [Example 512, 4-((2-cyano-4-fluorophenyl)thio)-6-(1-((S)-1-((R)-2-hydroxypropanoyl)piperidin-3-yl)-5-methyl-1H-pyrazol-4-yl)pyrazolo[1,5-a]pyridine-3-carbonitrile] | 1 nM |

Continued, values first:

| IC50 | Compound |
| --- | --- |
| 9 nM | Cc1c(-c2cc(Sc3ccc(F)cc3C#N)c3c(C#N)cnn3c2)cnn1CC(C)(C)O [Example 486, 4-((2-cyano-4-fluorophenyl)thio)-6-(1-(2-hydroxy-2-methylpropyl)-5-methyl-1H-pyrazol-4-yl)pyrazolo[1,5-a]pyridine-3-carbonitrile] |
| 0.4 nM | N#Cc1ccccc1Sc1cc(-c2cnn([C@H]3CCCNC3)c2)cn2ncc(C#N)c12 [Example 487, (S)-4-((2-cyanophenyl)thio)-6-(1-(piperidin-3-yl)-1H-pyrazol-4-yl)pyrazolo[1,5-a]pyridine-3-carbonitrile] |
| 1 nM | CC(=O)N[C@H]1CC[C@@H](n2ncc(-c3cc(Sc4nc(C)c(F)cc4F)c4c(C#N)cnn4c3)c2C)CC1 [Example 488, N-((1s,4s)-4-(4-(3-cyano-4-((3,5-difluoro-6-methylpyridin-2-yl)thio)pyrazolo[1,5-a]pyridin-6-yl)-5-methyl-1H-pyrazol-1-yl)cyclohexyl)acetamide] |
| 3 nM | CC(C)(C)n1cc(-c2cc(Sc3ncccc3F)c3c(C#N)cnn3c2)cn1 [Example 489, 6-(1-(tert-butyl)-1H-pyrazol-4-yl)-4-((3-fluoropyridin-2-y)thio)pyrazolo[1,5-a]pyridine-3-carbonitrile] |
| 2 nM | CC(C)(O)Cn1cc(-c2cc(Sc3ncccc3F)c3c(C#N)cnn3c2)cn1 [Example 490, 4-((3-fluoropyridin-2-yl)thio)-6-(1-(2-hydroxy-2-methylpropyl)-1H-pyrazol-4-yl)pyrazolo[1,5-a]pyridine-3-carbonitrile] |
| 1 nM | CC(C)(O)Cn1cc(-c2cc(Sc3ccccc3C#N)c3c(C#N)cnn3c2)cn1 [Example 494, 4-((2-cyanophenyl)thio)-6-(1-(2-hydroxy-2-methylpropyl)-1H-pyrazol-4-yl)pyrazolo[1,5-a]pyridine-3-carbonitrile] |
| 2 nM | Cc1c(-c2cc(Sc3ccc(F)cc3C#N)c3c(C#N)cnn3c2)cnn1[C@H]1CCC[C@@H](O)C1 [Example 498, 4-((2-cyano-4-fluorophenyl)thio)-6-(1-((1S,3R)-3-hydroxycyclohexyl)-5-methyl-1H-pyrazol-4-yl)pyrazolo[1,5-a]pyridine-3-carbonitrile] |
| 1 nM | C[C@]1(O)CC[C@@H](n2cc(-c3cc(Sc4ccc(F)cc4C#N)c4c(C#N)cnn4c3)cn2)CC1 [Example 500, 4-((2-cyano-4-fluorophenyl)thio)-6-(1-((1s,4s)-4-hydroxy-4-methylcyclohexyl)-1H-pyrazol-4-yl)pyrazolo[1,5-a]pyridine-3-carbonitrile] |
| 1 nM | CN1CCC(n2cc(-c3cc(Sc4ncccc4F)c4c(C#N)cnn4c3)cn2)CC1=O (stereo not shown) [Example 506, 4-((3-fluoropyridin-2-yl)thio)-6-(1-(1-methyl-2-oxopiperidin-4-yl)-1H-pyrazol-4-yl)pyrazolo[1,5-a]pyridine-3-carbonitrile] |
| 48 nM | CNC(=O)c1nn([C@H]2CCCNC2)cc1-c1cc(Sc2ncccc2F)c2c(C#N)cnn2c1 [Example 508, (S)-4-(3-cyano-4-((3-fluoropyridin-2-yl)thio)pyrazolo[1,5-a]pyridin-6-yl)-N-methyl-1-(piperidin-3-yl)-1H-pyrazole-3-carboxamide] |
| 8 nM | Cc1c(-c2cc(Sc3ccc(F)cc3C#N)c3c(C#N)cnn3c2)cnn1CCO [Example 511, 4-((2-cyano-4-fluorophenyl)thio)-6-(1-(2-hydroxyethyl)-5-methyl-1H-pyrazol-4-yl)pyrazolo[1,5-a]pyridine-3-carbonitrile] |
| 1 nM | CS(=O)(=O)N1CCC(n2cc(-c3cc(Sc4ccccc4C#N)c4c(C#N)cnn4c3)cn2)CC1 [Example 513, 4-((2-cyanophenyl)thio)-6-(1-(1-(methylsulfonyl)piperidin-4-yl)-1H-pyrazol-4-yl)pyrazolo[1,5-a]pyridine-3-carbonitrile] |
| 1 nM | CS(=O)(=O)N1CCC[C@H](n2cc(-c3cc(Sc4ccccc4C#N)c4c(C#N)cnn4c3)cn2)C1 [Example 514, (S)-4-((2-cyanophenyl)thio)-6-(1-(1-(methylsulfonyl)piperidin-3-yl)-1H-pyrazol-4-yl)pyrazolo[1,5-a]pyridine-3-carbonitrile] |
